According to patent publication US10226514B2, “Methods and compositions for reducing blood glucose levels” (The Children's Medical Center Corporation, priority 2011, dated 2019):
“Also recorded” adds a separate entry of the source.

What was measured:
[1] = test system: XBP1s; assay: Cytoplasmic and nuclear XBP1s protein in cells; format: cell-based, mouse; details: anisomycin 25 ng/ml, two hours
Experimental: Cytoplasmic and nuclear protein fractions were extracted from cells by using nuclear protein extraction kit from Active Motif (Carlsbad, Calif.). Cells were maintained in 10 cm tissue culture dishes for nuclear/cytoplasmic extraction. After removal of the media, cells were washed with ice-cold phosphate buffered saline (PBS) containing phosphatase inhibitors. Subsequently, 3 ml of ice-cold PBS with phosphatase inhibitors was added and then cells were scrapped out of the dish. Collected cells were separated from PBS by centrifugation for 5 minutes at 500 rpm and resuspended with 500 μl of 1× hypotonic buffer. After 15-minute incubation in hypotonic buffer on ice, 25 μl of supplied detergent was added and cells were vortexed 10 seconds. Cells were centrifuged for 30 seconds at 14,000×g and supernatant (cytoplasmic fraction) was saved for further analysis. Remaining pellet, which contains nuclei, were resuspended with 50 μl of provided complete lysis buffer with 1 mM dithiothreitol (DTT), vortexed 10 seconds, and incubated for 30 minutes on ice. After 30-second vortexing and 10-minute centrifugation at 14,000×g, the supernatant was collected and analyzed as nuclear fraction.

[2] = test system: XBP1s mRNA; assay: XBP1s mRNA levels and stability (Q-PCR, actinomycin D); format: cell-based, mouse
Experimental: Total RNA was extracted from cells or animal tissues using Trizol reagent (Invitrogen) and transcribed into cDNA using cDNA synthesis kit (Bio-Rad). The gene expression analysis was performed with iQ5 Multicolor Real-Time PCR Detection System (Bio-Rad) with SYBR Green Supermix (Bio-Rad). The mRNA level was normalized to 18S as a house keeping gene. The primer sequences used were:
For mRNA stability determination, MEF cells were infected with Ad-XBP1s. Sixteen hour after the infection, cells were treated with anisomycin (25 ng/ml) or vehicle (DMSO) for 1 h. Actinomycin D (10 μg/ml, Sigma) was added to the medium. Cells were flash frozen in liquid nitrogen at various time points. mRNA levels were determined via Q-PCR.

How did the “cytoplasmic levels of XBP1s vs vehicle-treated cells” value [1] turn out when `COc1ccc(C[C@H]2NC[C@H](O)[C@H]2OC(C)=O)cc1` [anisomycin] was run?
The value was 28.8 times.

What about the “nuclear levels of XBP1s vs vehicle-treated cells” value [1] of the same compound?
The value was 141.8 times.

What about the “enhanced stability of XBP1s mRNA” value ([2]; MK2−/− cells, anisomycin 25 ng/ml) of the same compound?
Its value is “completely lost”.

And the “XBP1s mRNA stability” value ([2]; TTP−/− cells, anisomycin 25 ng/ml one hour, actinomycin D 10 μg/ml)?
Its value is “capable of increasing XBP1s mRNA stability”.

And the “XBP1s mRNA levels” value ([2]; XBP1s expressing control cells, one hour)?
The value was “dramatic increase in mRNA of XBP1s; also recorded: increased the mRNA levels of XBP1s in a dose dependent manner”.
